# Test system: ASPS-1 complex tumor spheroids, viability
# Assay: Anticancer human tumor ASPS-1 cell line growth inhibition;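 further: spheroids exposed to agents for 7 days after 3 days of growth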;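 on viability, T/C: 100% = DMSO vehicle treated spheroids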
# Settings: for IC50: curve of first compound; for viability, T/C: stronger effect = lower value
# Procedure, shortened: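 Single agents and combinations were tested on spheroids built from tumor cells plus HUVEC and hMSC, at half-log dilutions starting at or near clinical Cmax, else 10 microM; final DMSO 0.25% (v/v).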
compound,measurement,setting,value
COc1ccc([C@@H](O)c2cc(-c3ncnc4cc(N5CCOCC5)ccc34)c(F)cc2Cl)nn1 + COc1cc2c(cc1O)CCNC21CSC2c3c(OC(C)=O)c(C)c4c(c3C(COC1=O)N1C(O)C3Cc5cc(C)c(OC)c(O)c5C(C21)N3C)OCO4,IC50,second compound 30 pM,6.58 µM
same,IC50,second compound 94.9 pM,4.8 µM
same,IC50,second compound 0.0003 µM,1.52 µM
same,IC50,second compound 0.000949 µM,0.379 µM
same,IC50,second compound 0.003 µM,< 0.0316 µM
same,"viability, T/C","second compound 30 pM, first compound 0.0316 µM",103%
same,"viability, T/C","second compound 30 pM, first compound 0.1 µM",106%
same,"viability, T/C","second compound 30 pM, first compound 0.316 µM",103%
same,"viability, T/C","second compound 30 pM, first compound 1 µM",93.2%
same,"viability, T/C","second compound 30 pM, first compound 3.16 µM",77%
same,"viability, T/C","second compound 30 pM, first compound 10 µM",34.7%
same,"viability, T/C","second compound 94.9 pM, first compound 0.0316 µM",108%
same,"viability, T/C","second compound 94.9 pM, first compound 0.1 µM",106%
same,"viability, T/C","second compound 94.9 pM, first compound 0.316 µM",101%
same,"viability, T/C","second compound 94.9 pM, first compound 1 µM",96.7%
same,"viability, T/C","second compound 94.9 pM, first compound 3.16 µM",62.6%
same,"viability, T/C","second compound 94.9 pM, first compound 10 µM",27.5%
same,"viability, T/C","second compound 0.0003 µM, first compound 0.0316 µM",103%
same,"viability, T/C","second compound 0.0003 µM, first compound 0.1 µM",108%
same,"viability, T/C","second compound 0.0003 µM, first compound 0.316 µM",97.7%
same,"viability, T/C","second compound 0.0003 µM, first compound 1 µM",68.3%
same,"viability, T/C","second compound 0.0003 µM, first compound 3.16 µM",18.7%
same,"viability, T/C","second compound 0.0003 µM, first compound 10 µM",5.37%
same,"viability, T/C","second compound 0.000949 µM, first compound 0.0316 µM",79.3%
same,"viability, T/C","second compound 0.000949 µM, first compound 0.1 µM",81%
same,"viability, T/C","second compound 0.000949 µM, first compound 0.316 µM",55%
same,"viability, T/C","second compound 0.000949 µM, first compound 1 µM",17.5%
same,"viability, T/C","second compound 0.000949 µM, first compound 3.16 µM",1.86%
same,"viability, T/C","second compound 0.000949 µM, first compound 10 µM",0.35%
same,"viability, T/C","second compound 0.003 µM, first compound 0.0316 µM",22.5%
same,"viability, T/C","second compound 0.003 µM, first compound 0.1 µM",19.1%
same,"viability, T/C","second compound 0.003 µM, first compound 0.316 µM",9.89%
same,"viability, T/C","second compound 0.003 µM, first compound 1 µM",1.71%
same,"viability, T/C","second compound 0.003 µM, first compound 3.16 µM",1.27%
same,"viability, T/C","second compound 0.003 µM, first compound 10 µM",1.18%

# Reference: PubChem BioAssay AID1845200 (Molecular Pharmacology Branch, DTP, NCI, 2023)
